Assays:
[1] = xn = mol fraction of the nth substance listed; conditions: x2 = 0; for mass density / speed of sound / viscosity: 100 kPa, Liquid
[2] = refractive index (Na D-line) (dimensionless); xn = mol fraction of the nth substance listed; conditions: 100 kPa, Liquid, x2 = 0
[3] = for mass density / speed of sound / viscosity: 100 kPa, Liquid
[4] = refractive index (Na D-line) (dimensionless); conditions: 101.33 kPa, Liquid

Clc1ccccc1 [chlorobenzene] + COc1ccc(C=O)cc1
Conditions | mass density, [1] [kg/m3] | refractive index, [2] | speed of sound, [1] [m/s] | surface tension liquid-gas, [1] [mN/m] | viscosity, [1] [mPa·s]
303.15 K | 1102 | 1.559 | 1220 | 33.6 | 0.7105
313.15 K | 1080 | 1.5509 | – | 32.3 | 0.6914
323.15 K | 1067.4 | 1.548 | 695 | 31.26 | 0.5543

COc1ccc(C=O)cc1 [4-methoxybenzaldehyde]
Conditions | mass density, [3] [kg/m3] | refractive index, [4] | speed of sound, [3] [m/s] | surface tension liquid-gas, [3] [mN/m] | viscosity, [3] [mPa·s]
303.15 K | 1125.5 | 1.5571 | 1684 | 99.08 | 3.275
313.15 K | 1119.1 | 1.5488 | 1631 | 96.11 | 2.97
323.15 K | 1114.1 | 1.5463 | 1571 | 94.1 | 2.442

Clc1ccccc1 [chlorobenzene]
Conditions | mass density, [3] [kg/m3] | refractive index, [4] | speed of sound, [3] [m/s] | surface tension liquid-gas, [3] [mN/m] | viscosity, [3] [mPa·s]
303.15 K | 1102 | – | 1220 | 33.6 | 0.7105
313.15 K | 1080 | – | – | 32.3 | 0.6914
323.15 K | 1067.4 | 1.548 | 695 | 31.26 | 0.5543
